Results published in the NIST ThermoML archive (doi:10.1021/je0340250).

Key:
[1] = xn = mol fraction of the nth substance listed

CN1CCOCC1 [N-methylmorpholine] + O
surface tension liquid-gas [mN/m], [1]
Conditions	298.15 K	308.15 K	318.15 K	328.15 K
x1 = 0.0082	69.64	67.64	65.75	63.98
x1 = 0.0256	54.94	53.18	51.42	49.66
x1 = 0.0481	50.58	48.64	46.7	44.76
x1 = 0.0539	49.42	47.71	46	44.3
x1 = 0.0747	46.86	45.35	43.83	42.32
x1 = 0.0992	44.62	43.24	41.87	40.49
x1 = 0.1962	38.66	37.36	36.05	34.75
x1 = 0.2972	34.9	33.66	32.43	31.19
x1 = 0.395	32.72	31.54	30.35	29.16
x1 = 0.4993	31.33	30.17	29.02	27.86
x1 = 0.5952	30.56	29.47	28.37	27.28
x1 = 0.6979	29.81	28.73	27.65	26.57
x1 = 0.8028	29.24	28.14	27.03	25.93
x1 = 0.8925	28.81	27.69	26.57	25.45
x1 = 1	28.22	27.2	26.18	25.15

C1COCCN1 [tetrahydro-1,4-oxazine]
Conditions	surface tension liquid-gas [mN/m]
298.15 K	37.68
308.15 K	36.46
318.15 K	35.24
328.15 K	34.02
